Non-standard residues stand in square brackets, D forms with d. Residues, ends and D or L forms follow the SMILES beside them. pT = C[C@@H](OP(=O)(O)O)[C@H](N)C(=O)O; Nle = CCCC[C@H](N)C(=O)O
What was measured:
HeLa cells = conditions: Bub1 RNAi 48 h, nocodazole 2 h, reversine 0.5 μM, 25–35% without reversine
Description: (a) Outline of the synchronization protocol used in this study. Left, RNAi and rescue protocol; right, Bub1 CRISPR/Cas9 knockout protocol. (b) HeLa cells were treated with a control RNAi oligo (luciferase) or an RNAi oligo targeting Bub1 for 48 h and arrested in mitosis using nocodazole for 2 h. Cells were fixed and stained with 4,6-diamidino-2-phenylindole (DAPI), CREST (centromere marker) and Bub1 antibodies. (c,e,g,i) The kinetochore levels of Bub1, BubR1 and KNL1 were determined in the indicated conditions and normalized to CREST. An unpaired t-test was used for statistical comparison of the different samples in e. […] (f) HeLa cells were transfected with Cas9 protein with guide RNA against Bub1 gene for 96 h and treated with nocodazole for 2 h. […] At least 160 individual kinetochores from eight cells were measured in each condition. […]
Cells growing on coverslips were washed once with PBS and fixed with 4% paraformaldehyde in PHEM buffer (60 mM PIPES, 25 mM HEPES, pH 6.9, 10 mM EGTA and 4 mM MgSO4) for 20 min at room temperature. […] Z-stacks 200 nm apart was recorded on a Deltavision Elite microscope (GE Healthcare), using a × 100 oil objective followed by deconvolution using Softworx before quantification. Protein intensity on kinetochores was quantified by drawing a circle closely along the rod-like CREST staining covering the interested outer kinetochore protein staining on both ends. […]

BubR1/Bub3 = biological target: T1, BubR1/Bub3 (Homo sapiens, UniProt O43684+O60566); assay: MicroScale Thermophoresis (MST) affinity of MELT peptides for BubR1/Bub3; format: binding; conditions: for Binding of BubR1/Bub3 to phosphorylated MELT peptide, in words: 50 mM NaCl
T1 construct: made in house; host or cells: HEK293 cells (transient co-transfection)
T1 sequence (O60566 whole entry): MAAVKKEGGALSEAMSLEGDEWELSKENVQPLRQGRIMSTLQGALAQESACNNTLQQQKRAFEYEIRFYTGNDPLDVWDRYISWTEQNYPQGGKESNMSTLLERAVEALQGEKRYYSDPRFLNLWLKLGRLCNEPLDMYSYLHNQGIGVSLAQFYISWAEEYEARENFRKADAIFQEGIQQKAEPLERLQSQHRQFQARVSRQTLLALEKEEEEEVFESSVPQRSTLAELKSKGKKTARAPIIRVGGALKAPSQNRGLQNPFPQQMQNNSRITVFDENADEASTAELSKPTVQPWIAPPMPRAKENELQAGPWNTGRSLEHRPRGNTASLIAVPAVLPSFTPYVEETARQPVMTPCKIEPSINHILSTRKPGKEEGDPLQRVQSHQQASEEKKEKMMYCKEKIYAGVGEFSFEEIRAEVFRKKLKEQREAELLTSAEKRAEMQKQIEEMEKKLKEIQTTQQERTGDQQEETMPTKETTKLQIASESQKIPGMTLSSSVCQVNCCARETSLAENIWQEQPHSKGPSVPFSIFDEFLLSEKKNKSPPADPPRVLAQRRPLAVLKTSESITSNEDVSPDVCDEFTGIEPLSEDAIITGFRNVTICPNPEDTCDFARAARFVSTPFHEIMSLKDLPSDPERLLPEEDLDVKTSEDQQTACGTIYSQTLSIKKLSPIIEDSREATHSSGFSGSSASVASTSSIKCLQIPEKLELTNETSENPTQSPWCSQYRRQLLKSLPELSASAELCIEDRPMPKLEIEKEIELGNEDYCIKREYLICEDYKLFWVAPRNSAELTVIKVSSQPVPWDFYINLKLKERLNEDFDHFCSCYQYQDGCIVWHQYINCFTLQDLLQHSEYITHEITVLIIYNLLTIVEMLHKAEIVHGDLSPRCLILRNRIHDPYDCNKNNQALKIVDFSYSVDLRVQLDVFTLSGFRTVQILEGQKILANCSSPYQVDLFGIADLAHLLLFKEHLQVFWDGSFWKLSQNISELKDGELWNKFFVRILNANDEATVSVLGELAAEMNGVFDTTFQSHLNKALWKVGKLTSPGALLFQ
T1 sequence (O43684 whole entry): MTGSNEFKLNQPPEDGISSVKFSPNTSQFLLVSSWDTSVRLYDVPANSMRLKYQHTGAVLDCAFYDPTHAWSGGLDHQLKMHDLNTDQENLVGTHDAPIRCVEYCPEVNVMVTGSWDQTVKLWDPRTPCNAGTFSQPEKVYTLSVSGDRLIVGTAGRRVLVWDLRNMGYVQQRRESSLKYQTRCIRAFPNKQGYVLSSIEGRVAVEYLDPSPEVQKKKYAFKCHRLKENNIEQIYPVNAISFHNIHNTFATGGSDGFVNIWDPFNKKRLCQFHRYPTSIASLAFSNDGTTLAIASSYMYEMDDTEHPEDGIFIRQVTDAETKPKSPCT
Description: To determine the affinity of the complexes to MELTp repeats, we used MicroScale Thermophoresis (MST). Purified BubR1/Bub3 and Bub1(1–553)/Bub3 complexes were fluorescently labelled with maleimide chemistry for these measurements and tested for their ability to bind phosphorylated MELT12, MELT16 and MELT18 peptides (Fig. 2e–g; Supplementary Fig. 2). […] We conducted the affinity measurements at 50 mM NaCl as this produced the best quality data for the Bub1(1–553)/Bub3 complex.
MST experiments were performed on a NanoTemper Monolith NT.115 instrument with blue/red channels. Both complexes, BubR1/Bub3 and Bub1(1–553)/Bub3, were labelled using the Monolith NT Protein Labeling kit RED-MALEIMIDE (NanoTemper Technologies GmbH) according to the supplied protocol. The labelling efficiency was ∼90% and 75%, respectively, and it was estimated by independent measurements of the protein concentration combining spectroscopic measurements and a NT-647 red dye calibration curve in the corresponding MST interaction buffer. Samples were prepared in MST buffer (50 mM HEPES (pH 7.8), 200 mM NaCl, 0.5 mM TCEP, 0.05% Tween 20 or 50 mM Tris (pH 7.8), 50 mM NaCl, 0.5 mM TCEP and 0.05% Tween 20), loaded into premium coated capillaries and measurements were performed at 40% MST power. Laser off/on times were 5 and 30 s, respectively. The fluorescently labelled BubR1/Bub3 and Bub1(1–553)/Bub3 were used at concentrations of 25 and 12.5 nM, respectively, at 40% light-emitting diode power for all peptides except for the double-phosphorylated MELT12 peptide in MST buffer 50 mM Tris (pH 7.8), 50 mM NaCl, 0.5 mM TCEP and 0.05% Tween 20 that were performed at 4 nM concentration of the labelled proteins and 80% light-emitting diode power. […] The fraction of bound protein was derived from the averaged (1 s averaged) normalized fluorescence signals at t=8 s of the labelled complexes at different ligand concentrations. […] The number of independent repeats was three for all measurements and error bars show the s.d. between these independent repeats.

Bub1(1–553)/Bub3 = biological target: T2, Bub1(1–553)/Bub3 (Homo sapiens, UniProt O43683+O43684); assay: MicroScale Thermophoresis (MST) affinity of MELT peptides for Bub1(1–553)/Bub3; format: binding; conditions: for Binding of Bub1(1–553)/Bub3 to phosphorylated MELT peptide, in words: 50 mM NaCl
T2 construct: 15 μg 3 × FLAG–Bub1(1–553)-expressing plasmid; made in house; host or cells: HEK293 cells (transient co-transfection)
T2 sequence (O43683 1-553 limits assumed): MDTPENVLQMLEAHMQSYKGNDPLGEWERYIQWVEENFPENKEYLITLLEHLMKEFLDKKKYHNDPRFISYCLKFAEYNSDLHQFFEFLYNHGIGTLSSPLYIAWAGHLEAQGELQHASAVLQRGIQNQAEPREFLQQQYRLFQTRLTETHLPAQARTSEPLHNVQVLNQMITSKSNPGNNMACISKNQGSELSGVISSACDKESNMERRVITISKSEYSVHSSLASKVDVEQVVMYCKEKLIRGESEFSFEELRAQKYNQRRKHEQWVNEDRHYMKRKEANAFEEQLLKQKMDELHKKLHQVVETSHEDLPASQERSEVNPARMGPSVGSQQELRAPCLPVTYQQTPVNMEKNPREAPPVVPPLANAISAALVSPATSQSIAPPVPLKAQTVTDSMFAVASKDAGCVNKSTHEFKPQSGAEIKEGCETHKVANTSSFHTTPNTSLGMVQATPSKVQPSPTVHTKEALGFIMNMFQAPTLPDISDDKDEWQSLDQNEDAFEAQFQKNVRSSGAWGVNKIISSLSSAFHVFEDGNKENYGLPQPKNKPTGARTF
T2 sequence (O43684 whole entry): as the sequence (O43684 whole entry) above
Text: We next wanted to quantitatively compare the ability of BubR1/Bub3 and Bub1/Bub3 to bind MELTp repeats. For this, we purified a FLAG–Bub1(1–553)/Bub3 complex in parallel with FLAG–BubR1/Bub3 (we could not obtain sufficient yields of the full-length Bub1/Bub3 complex, but have recently shown that Bub1 1–553 fully supports SAC signalling[29]). To determine the affinity of the complexes to MELTp repeats, we used MicroScale Thermophoresis (MST). Purified BubR1/Bub3 and Bub1(1–553)/Bub3 complexes were fluorescently labelled with maleimide chemistry for these measurements and tested for their ability to bind phosphorylated MELT12, MELT16 and MELT18 peptides (Fig. 2e–g; Supplementary Fig. 2). The binding of BubR1/Bub3 to MELT12 was strongly dependent on phosphorylation and the measured affinity was sensitive to the salt concentration in the buffer as expected for an interaction depending on electrostatic interactions with the phosphorylated threonine[26] (Fig. 2e–g; Supplementary Fig. 2C). We conducted the affinity measurements at 50 mM NaCl as this produced the best quality data for the Bub1(1–553)/Bub3 complex.
Ten 15-cm dishes were each seeded with 6 × 10^6 HEK293 cells and the next day each transfected with 15 μg 3 × FLAG–BubR1 or 15 μg 3 × FLAG–Bub1(1–553)-expressing plasmid and 15 μg untagged Bub3-expressing plasmid using lipofectamine 2000 (Invitrogen). Forty-eight hours after transfection, the cells were collected by trypsination and cells washed in cold PBS with 1 mM phenylmethyl sulphonyl fluoride. The cells were resuspended in 5 ml buffer A (350 mM NaCl, 50 mM Tris·HCl (pH 8.0), 0.05% NP-40 and protease inhibitor cocktail (Roche)) and lysed using a nitrogen cavitation bomb. Lysate was clarified by centrifugation and then incubated with 300 μl FLAG-affinity resin (Sigma-Aldrich) for 90 min at 4 °C. The FLAG resin was washed with 20 ml buffer A and proteins eluted with three times 300 μl buffer A containing […] 3 × FLAG peptide (Sigma). The eluates were pooled and concentrated to 500 μl and loaded on a Superdex 200 10/300 GL column equilibrated with buffer B (150 mM NaCl, 25 mM HEPES·KOH (pH 7.8), 5% glycerol and 0.5 mM TCEP) and peak fractions eluting at ∼500 kDa pooled and concentrated using a vivaspin-4 concentration device. Proteins were stored at −80 °C.
MST experiments were performed on a NanoTemper Monolith NT.115 instrument with blue/red channels. […] The fluorescently labelled protein complexes were mixed with equivalent volumes (10 μl) of a twofold serial dilution of the different peptides starting at concentrations between 10 and 20 times the calculated KD. The fraction of bound protein was derived from the averaged (1 s averaged) normalized fluorescence signals at t=8 s of the labelled complexes at different ligand concentrations. […]

Row | Binding of BubR1/Bub3 to phosphorylated MELT peptide, in words (BubR1/Bub3) | BubR1/Bub3 KD (BubR1/Bub3; 50 mM Tris pH 7.8, 50 mM NaCl, 0.5 mM TCEP, 0.05% Tween 20, labelled BubR1/Bub3 25 nM (4 nM for double-phosphorylated MELT12), three independent repeats) | Binding of Bub1(1–553)/Bub3 to phosphorylated MELT peptide, in words (Bub1(1–553)/Bub3) | Bub1(1–553)/Bub3 KD (Bub1(1–553)/Bub3; 50 mM Tris pH 7.8, 50 mM NaCl, 0.5 mM TCEP, 0.05% Tween 20, labelled Bub1(1–553)/Bub3 12.5 nM (4 nM for double-phosphorylated MELT12), three independent repeats) | Compound | BubR1 kinetochore levels remaining (normalized to CREST) (HeLa cells) [%]
1 |  |  |  |  | c1nc2nc(Nc3ccc(N4CCOCC4)cc3)nc(NC3CCCCC3)c2[nH]1 [reversine] | ~10
2 | no binding was detected | No binding | no binding was detected | No binding | TDNYSDLEV-Tp-DSHTVFID-amide [MELT18p, single-phosphorylated MELT18 peptide from KNL1] | 
3 | bound |  | bound |  | CCCC[C@H](NC(=O)[C@H](CC(=O)O)NC(=O)[C@H](CC(N)=O)NC(=O)[C@H](CCCCN)NC(=O)[C@H](Cc1c[nH]cn1)NC(=O)[C@H](CC(N)=O)NC(=O)[C@@H](N)CCC(=O)O)C(=O)N[C@@H](CC(=O)O)C(=O)N[C@H](C(=O)N[C@H](C(=O)N[C@@H](CCC(N)=O)C(=O)N[C@@H](CO)C(=O)N[C@@H](CS)C(=O)N[C@@H](CCCC)C(=O)N[C@H](C(=O)N[C@@H](CCC(=O)O)C(=O)N[C@H](C(=O)N[C@@H](CC(=O)O)C(=O)N[C@@H](Cc1ccc(O)cc1)C(N)=O)[C@@H](C)CC)C(C)C)[C@@H](C)OP(=O)(O)O)[C@@H](C)CC [MELT16p] (H-ENHKND[Nle]DI[pT]QSC[Nle]VEIDY-NH2; N-terminus assumed) | 

Row | Compound | Binding of BubR1/Bub3 to phosphorylated MELT peptide, in words (BubR1/Bub3) | BubR1/Bub3 KD (BubR1/Bub3; 50 mM Tris pH 7.8, 50 mM NaCl, 0.5 mM TCEP, 0.05% Tween 20, labelled BubR1/Bub3 25 nM (4 nM for double-phosphorylated MELT12), three independent repeats) | Binding of Bub1(1–553)/Bub3 to phosphorylated MELT peptide, in words (Bub1(1–553)/Bub3) | Bub1(1–553)/Bub3 KD (Bub1(1–553)/Bub3; 50 mM Tris pH 7.8, 50 mM NaCl, 0.5 mM TCEP, 0.05% Tween 20, labelled Bub1(1–553)/Bub3 12.5 nM (4 nM for double-phosphorylated MELT12), three independent repeats) | BubR1 kinetochore levels remaining (normalized to CREST) (HeLa cells) [%]
4 | CCCC[C@H](NC(=O)[C@H](CC(=O)O)NC(=O)[C@H](CC(N)=O)NC(=O)[C@H](CCCCN)NC(=O)[C@H](CC(=O)O)NC(=O)[C@H](CC(=O)O)NC(=O)[C@H](CCC(=O)O)NC(=O)COCCOCCNC(=O)[C@H](CS)NC(=O)COCCOCCNC(=O)CCCC[C@@H]1SC[C@@H]2NC(=O)N[C@@H]21)C(=O)N[C@@H](CC(=O)O)C(=O)N[C@H](C(=O)N[C@H](C(=O)N[C@@H](CCCCN)C(=O)N[C@@H](CO)C(=O)N[C@@H](Cc1ccc(O)cc1)C(=O)N[C@H](C(=O)N[C@H](C(=O)N[C@@H](CCC(=O)O)C(=O)N[C@H](C(=O)N[C@@H](CC(N)=O)C(N)=O)[C@@H](C)CC)[C@@H](C)CC)[C@@H](C)O)[C@@H](C)OP(=O)(O)O)[C@@H](C)CC [MELT12p] | bound |  | bound |  | 

Source: publication PMC4963475, “Two functionally distinct kinetochore pools of BubR1 ensure accurate chromosome segregation” (Nature Communications, 2016)
